In ChEMBL document CHEMBL1201862, “PubChem BioAssay data set” (2004):
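Dose response: 5 concentrations. Exposure: 48 h. Format: 96-well plates. Endpoint: linear interpolation; highest concentration if not reached. Here, GI50 denotes the concentration required for 50% inhibition of growth.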 Calls of active or inactive are those of the source. Rule as the data show it: active = GI50 up to about 1.1 µM and inactive = higher.

What was measured:
Test in all cases: DTP human tumour cell line panel, 48 h
[1] = system: 786-0
[2] = system: A498
[3] = system: A549
[4] = system: ACHN
[5] = system: CAKI-1
[6] = system: CCRF-CEM
[7] = system: COLO 205
[8] = system: DLD-1
[9] = system: DMS-114
[10] = system: DMS-273
[11] = system: EKVX
[12] = system: HCC 2998
[13] = system: HCT-116
[14] = system: HCT-15
[15] = system: HL-60
[16] = system: HOP-18
[17] = system: HOP-62
[18] = system: HOP-92
[19] = system: HT-29
[20] = system: IGROV-1
[21] = system: K562
[22] = system: KM-20L2
[23] = system: KM12
[24] = system: LOX IMVI
[25] = system: LXFL 529
[26] = system: M14
[27] = system: M19-MEL
[28] = system: MOLT-4
[29] = system: Malme-3M
[30] = system: NCI-H226
[31] = system: NCI-H23
[32] = system: NCI-H460
[33] = system: NCI-H522
[34] = system: OVCAR-3
[35] = system: OVCAR-4
[36] = system: OVCAR-5
[37] = system: OVCAR-8
[38] = system: RPMI-8226
[39] = system: RXF 393
[40] = system: RXF 631
[41] = system: SF-268
[42] = system: SF-295
[43] = system: SF-539
[44] = system: SK-MEL-28
[45] = system: SK-MEL-2
[46] = system: SK-MEL-5
[47] = system: SK-OV-3
[48] = system: SN12C
[49] = system: SNB-19
[50] = system: SNB-75
[51] = system: SNB-78
[52] = system: SR
[53] = system: SW-620
[54] = system: TK-10
[55] = system: U-251
[56] = system: UACC-257
[57] = system: UACC-62
[58] = system: UO-31
[59] = system: XF498

CC1=C(C(=O)Nc2ccccc2C)C(c2ccc(Cl)c(Cl)c2)C(C(=O)Nc2ccccc2C)=C(C)N1
GI50 [1]: 24.7 µM (inactive)
GI50 [2]: 27.5 µM (inactive)
GI50 [3]: 24.2 µM (inactive)
GI50 [4]: 27.3 µM (inactive)
GI50 [5]: 26.7 µM (inactive)
GI50 [6]: 22.7 µM (inactive)
GI50 [7]: 16.4 µM (inactive)
GI50 [8]: 27.9 µM (inactive)
GI50 [9]: 17.4 µM (inactive)
GI50 [10]: 16.7 µM (inactive)
GI50 [11]: 34.1 µM (inactive)
GI50 [12]: 25.6 µM (inactive)
GI50 [13]: 16 µM (inactive)
GI50 [14]: 17.2 µM
GI50 [15]: 15.1 µM (inactive)
GI50 [16]: 22.9 µM (inactive)
GI50 [17]: 28.6 µM (inactive)
GI50 [18]: 14.4 µM (inactive)
GI50 [19]: 20 µM (inactive)
GI50 [20]: 19 µM (inactive)
GI50 [21]: 20.3 µM (inactive)
GI50 [22]: 16.1 µM (inactive)
GI50 [23]: 26.2 µM (inactive)
GI50 [24]: 20.9 µM (inactive)
GI50 [25]: 14.4 µM (inactive)
GI50 [26]: 16.6 µM (inactive)
GI50 [27]: 19.7 µM (inactive)
GI50 [28]: 12.6 µM (inactive)
GI50 [29]: 22.5 µM (inactive)
GI50 [30]: 15.2 µM (inactive)
GI50 [31]: 19.8 µM (inactive)
GI50 [32]: 15.8 µM (inactive)
GI50 [33]: 14.5 µM (inactive)
GI50 [34]: 17.6 µM (inactive)
GI50 [35]: 16.4 µM (inactive)
GI50 [36]: 23.1 µM (inactive)
GI50 [37]: 37.2 µM (inactive)
GI50 [38]: 16.1 µM (inactive)
GI50 [39]: 20.1 µM (inactive)
GI50 [40]: 19.8 µM (inactive)
GI50 [41]: 20.3 µM (inactive)
GI50 [42]: 21.6 µM (inactive)
GI50 [43]: 25.5 µM (inactive)
GI50 [44]: 25.8 µM (inactive)
GI50 [45]: 16.1 µM (inactive)
GI50 [46]: 17.5 µM (inactive)
GI50 [47]: 22.9 µM (inactive)
GI50 [48]: 18.7 µM (inactive)
GI50 [49]: 44.2 µM (inactive)
GI50 [50]: 36.5 µM (inactive)
GI50 [51]: 29.4 µM (inactive)
GI50 [52]: 12.7 µM (inactive)
GI50 [53]: 31.6 µM (inactive)
GI50 [54]: 21.7 µM (inactive)
GI50 [55]: 19.3 µM (inactive)
GI50 [56]: 19.9 µM (inactive)
GI50 [57]: 17.4 µM (inactive)
GI50 [58]: 25.7 µM (inactive)
GI50 [59]: 26.2 µM (inactive)

CC(=O)Nc1ccc(C2C(C(=O)Nc3ccccc3C)=C(C)NC(C)=C2C(=O)Nc2ccccc2C)cc1
GI50 [1]: > 100 µM (inactive)
GI50 [2]: > 100 µM (inactive)
GI50 [3]: > 100 µM (inactive)
GI50 [4]: > 100 µM (inactive)
GI50 [5]: > 100 µM (inactive)
GI50 [6]: > 100 µM (inactive)
GI50 [7]: > 100 µM (inactive)
GI50 [8]: > 100 µM (inactive)
GI50 [9]: > 100 µM (inactive)
GI50 [10]: > 100 µM (inactive)
GI50 [11]: > 100 µM (inactive)
GI50 [12]: > 100 µM (inactive)
GI50 [13]: > 100 µM (inactive)
GI50 [14]: > 100 µM
GI50 [15]: 39.5 µM (inactive)
GI50 [16]: > 100 µM (inactive)
GI50 [17]: > 100 µM (inactive)
GI50 [18]: > 100 µM (inactive)
GI50 [19]: > 100 µM (inactive)
GI50 [20]: > 100 µM (inactive)
GI50 [21]: 57.5 µM (inactive)
GI50 [22]: > 100 µM (inactive)
GI50 [23]: > 31.6 µM (inactive)
GI50 [24]: > 100 µM (inactive)
GI50 [25]: > 100 µM (inactive)
GI50 [26]: > 100 µM (inactive)
GI50 [27]: > 100 µM (inactive)
GI50 [29]: > 100 µM (inactive)
GI50 [30]: > 100 µM (inactive)
GI50 [31]: > 100 µM (inactive)
GI50 [32]: > 100 µM (inactive)
GI50 [33]: > 100 µM (inactive)
GI50 [34]: > 100 µM (inactive)
GI50 [35]: > 100 µM (inactive)
GI50 [36]: > 100 µM (inactive)
GI50 [37]: > 92 µM (inactive)
GI50 [38]: > 100 µM (inactive)
GI50 [39]: > 100 µM (inactive)
GI50 [40]: > 100 µM (inactive)
GI50 [41]: > 100 µM (inactive)
GI50 [42]: > 100 µM (inactive)
GI50 [43]: > 100 µM (inactive)
GI50 [44]: > 100 µM (inactive)
GI50 [45]: > 100 µM (inactive)
GI50 [46]: > 100 µM (inactive)
GI50 [47]: > 100 µM (inactive)
GI50 [48]: > 100 µM (inactive)
GI50 [49]: > 100 µM (inactive)
GI50 [50]: > 61.2 µM (inactive)
GI50 [51]: > 100 µM (inactive)
GI50 [52]: 20.1 µM (inactive)
GI50 [53]: > 100 µM (inactive)
GI50 [54]: > 100 µM (inactive)
GI50 [55]: > 100 µM (inactive)
GI50 [56]: 96.6 µM (inactive)
GI50 [57]: > 92.3 µM (inactive)
GI50 [58]: > 100 µM (inactive)
GI50 [59]: > 100 µM (inactive)
